The values below come from patent US20220306695A1, “COMPSTATIN ANALOGUES AND THEIR MEDICAL USES” (priority 2019, published 2022).

Structures are written as SMILES. Positions of bridges follow the written chain, without caps; N, C: chain ends. Non-standard residues stand in square brackets, D forms with d. Residues, ends and D or L forms follow the SMILES beside them. Trp(1-Me) = Cn1cc(C[C@H](N)C(=O)O)c2ccccc21; Sar = CNCC(=O)O Some results are limits rather than exact numbers.

For one experiment, the system named is classical complement pathway. Kind of experiment: In vitro haemolysis assay (inhibition of classical complement pathway). The class given is cell-based, human. The settings on record: Table 3; cells that print μM; read-out: IC50, in vitro analysis of inhibition of hemolysis. Summed up:
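Serially diluted compound (9 points) was preincubated 15 min at room temperature with diluted human serum, titrated per batch to give 70-90% maximal haemolysis, in Tris/casein buffer pH 7.4 with Mg2+/Ca2+. Antibody-sensitized sheep erythrocytes were then added for 30 min at 37° C, and the reaction was stopped with EDTA. Haemolysis was read at A405, with IC50 from 4PL fit.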
What is called IC50 is the concentration at which inhibition is half-maximal. Take `CC[C@H](C)[C@H](NC(C)=O)C(=O)N[C@H]1CSSC[C@@H](C(=O)N[C@H](C(N)=O)[C@@H](C)O)NC(=O)[C@H](CCCNC(=N)N)NC(=O)[C@H](Cc2c[nH]cn2)NC(=O)[C@H](Cc2c[nH]cn2)NC(=O)CNC(=O)[C@H](Cc2c[nH]c3ccccc23)NC(=O)[C@H](CC(=O)O)NC(=O)[C@H](CCC(N)=O)NC(=O)[C@H](C(C)C)NC(=O)[C@H](C(C)C)NC1=O` [Ac-compstatin, reference compound]: the IC50 was above 5 µM.

The experiment is the same for the next values; noted with them: Table 3; human serum, sensitized sheep red blood cells; read-out: IC50[nM], in vitro analysis of inhibition of hemolysis.
For `CC[C@H](C)[C@@H]1NC(=O)[C@@H](NC(=O)[C@H](Cc2ccccc2)NC(=O)[C@H](C)NC(=O)[C@H](CO)NC(=O)CNC(=O)[C@H](CCC(=O)O)NC(C)=O)CSSC[C@@H](C(=O)N[C@@H](CCC(=O)O)C(=O)NCC(=O)N[C@@H](CCC(=O)O)C(N)=O)NC(=O)[C@H](CCCNC(=N)N)NC(=O)[C@H](Cc2c[nH]cn2)NC(=O)[C@H](CCC(=O)O)NC(=O)CNC(=O)[C@H](Cc2c[nH]c3ccccc23)NC(=O)[C@H](CC(=O)O)NC(=O)[C@H](CCC(N)=O)NC(=O)[C@H](Cc2cn(C)c3ccccc23)NC1=O` [Compound 58] (Ac-EGSAFCI[Trp(1-Me)]QDWGEHRCEGE-NH2; disulfide 6-16), the IC50 is below 0.1 µM. Regarding `CC[C@H](C)[C@@H]1NC(=O)[C@@H](NC(=O)CN(C)C(=O)[C@H](CCC(=O)O)NC(=O)CNC(C)=O)CSSC[C@@H](C(=O)N[C@H](C(=O)N[C@@H](CCC(=O)O)C(=O)N[C@@H](C)C(N)=O)[C@@H](C)O)NC(=O)[C@H](CCCNC(=N)N)NC(=O)[C@H](Cc2c[nH]cn2)NC(=O)[C@H](CCC(=O)O)NC(=O)CNC(=O)[C@H](Cc2c[nH]c3ccccc23)NC(=O)[C@H](CC(=O)O)NC(=O)[C@H](CCC(N)=O)NC(=O)[C@H](Cc2cn(C)c3ccccc23)NC1=O` [Compound 88] (Ac-GE[Sar]CI[Trp(1-Me)]QDWGEHRCTEA-NH2; disulfide 4-14), the IC50 is below 0.1 µM. The same measure, in the same setting: in the case of `CC[C@H](C)[C@H](NC(C)=O)C(=O)N[C@H]1CSSC[C@@H](C(=O)N[C@H](C(N)=O)[C@@H](C)O)NC(=O)[C@H](CCCNC(=N)N)NC(=O)[C@H](Cc2c[nH]cn2)NC(=O)[C@H](CC(=O)O)NC(=O)CNC(=O)[C@H](Cc2c[nH]c3ccccc23)NC(=O)[C@H](CC(=O)O)NC(=O)[C@H](CCC(N)=O)NC(=O)[C@H](Cc2c[nH]c3ccccc23)NC(=O)[C@H]([C@@H](C)CC)NC1=O` [Compound 17] (Ac-ICIWQDWGDHRCT-NH2; disulfide 2-12) it was below 0.1 µM. The same measure, in the same setting: in the case of `CC[C@H](C)[C@H](NC(=O)[C@H](C)NC(=O)[C@H](CO)NC(=O)[C@H](CO)NC(=O)[C@H](CCC(=O)O)NC(C)=O)C(=O)N[C@H]1CSSC[C@@H](C(=O)N[C@H](C(N)=O)[C@@H](C)O)NC(=O)[C@H](CCCNC(=N)N)NC(=O)[C@H](Cc2c[nH]cn2)NC(=O)[C@H](C)NC(=O)CNC(=O)[C@H](Cc2c[nH]c3ccccc23)NC(=O)[C@H](CC(=O)O)NC(=O)[C@H](CCC(N)=O)NC(=O)[C@H](Cc2c[nH]c3ccccc23)NC(=O)[C@H]([C@@H](C)CC)NC1=O` [Compound 46] (Ac-ESSAICIWQDWGAHRCT-NH2; disulfide 6-16) it was below 0.1 µM; in that of `CC[C@H](C)[C@H](NC(C)=O)C(=O)N[C@H]1CSSC[C@@H](C(=O)N(C)CC(N)=O)NC(=O)[C@H](CCCNC(=N)N)NC(=O)[C@H](Cc2c[nH]cn2)NC(=O)[C@H](CCC(=O)O)NC(=O)CNC(=O)[C@H](Cc2c[nH]c3ccccc23)NC(=O)[C@H](CC(=O)O)NC(=O)[C@H](CCC(N)=O)NC(=O)[C@H](Cc2c[nH]c3ccccc23)NC(=O)[C@H]([C@@H](C)CC)NC1=O` [Compound 13] (Ac-ICIWQDWGEHRC[Sar]-NH2; disulfide 2-12), below 0.1 µM.
